Laboratory results published in patent US8263608B2, “Melanocortin receptor-specific spiro-piperidine compounds” (Palatin Technologies, Inc., priority 2008, dated 2012).
pEC50: −log10 of the molar value.

Biological target: T1, MC1-R (Homo sapiens, UniProt Q01726)
T1 construct: or, for MC1-R, in HBL cells; endogenous in cells; host or cells: HBL cells
Assay: Assay for agonist activity: intracellular cAMP accumulation (functional assay)
Format: cell-based
Details: functional assays at MC1-R; for pEC50: HBL cells that express MC1-R, cAMP; for Emax: maximum efficacy compared to reference agonist NDP-α-MSH
Description: Accumulation of intracellular cAMP is examined as a measure of the ability of the test compounds to elicit a functional response in HEK-293 cells that express MC4-R, or, for MC1-R, in HBL cells. Confluent HEK-293 cells that express recombinant hMC4-R, or HBL cells that express MC1-R, are detached from culture plates by incubation in enzyme-free cell dissociation buffer. Dispersed cells are suspended in Earle's Balanced Salt Solution containing 10 mM HEPES (pH 7.5), 1 mM MgCl2, 1 mM glutamine, 0.5% albumin and 0.3 mM 3-isobutyl-1-methyl-xanthine (IBMX), a phosphodiesterase inhibitor. The cells are plated in 96-well plates at a density of 0.5 x 10^5 cells per well and pre-incubated for 30 minutes. Cells are exposed for 1 hour at 37° C. to test compounds dissolved in DMSO (final DMSO concentration of 1%) at a concentration range of 0.05-5000 nM in a total assay volume of 200 μL. NDP-α-MSH is used as the reference agonist. At the end of the incubation period, cells are disrupted by the addition of 50 μL of lysis buffer (cAMP EIA kit, Amersham) followed by vigorous pipetting. Levels of cAMP in the lysates are determined using a cAMP EIA kit (Amersham). Data analysis is performed by nonlinear regression analysis with Graph-Pad Prism® software. The maximum efficacies of the test compounds are compared to that achieved by the reference melanocortin agonist NDP-α-MSH.

T1 sequence (Q01726 whole entry): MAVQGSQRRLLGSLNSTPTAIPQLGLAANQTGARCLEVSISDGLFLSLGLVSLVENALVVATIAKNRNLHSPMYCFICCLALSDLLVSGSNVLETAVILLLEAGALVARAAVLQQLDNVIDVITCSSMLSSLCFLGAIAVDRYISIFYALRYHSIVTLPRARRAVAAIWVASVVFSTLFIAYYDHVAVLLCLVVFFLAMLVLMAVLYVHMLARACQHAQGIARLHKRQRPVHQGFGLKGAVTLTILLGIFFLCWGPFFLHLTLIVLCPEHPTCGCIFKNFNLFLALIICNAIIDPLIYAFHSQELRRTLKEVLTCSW

SMILES | functional status at MC1-R | pEC50 | Emax [%]
COC(=O)CN1CN(c2ccccc2)C2(CCN(C(=O)[C@@H](Cc3ccc(OC)cc3)NC(=O)CCc3cnc[nH]3)CC2)C1=O [Example 137, {8-[(R)-2-(3-3H-Imidazol-4-yl-propionylamino)-3-(4-methoxy-phenyl)-propionyl]-4-oxo-1-phenyl-1,3,8-triaza-spiro[4.5]dec-3-yl}-acetic acid methyl ester] | partial agonist | 7.42 | 56
COC(=O)CN1CN(c2ccccc2)C2(CCN(C(=O)[C@@H](Cc3ccc(OC)cc3)NC(=O)CCCCN)CC2)C1=O [Example 138, {8-[(R)-2-(5-Amino-pentanoylamino)-3-(4-methoxy-phenyl)-propionyl]-4-oxo-1-phenyl-1,3,8-triaza-spiro[4.5]dec-3-yl}-acetic acid methyl ester] | partial agonist | 6.47 | 44
COc1ccc(C[C@@H](NC(=O)[C@@H](N)Cc2cncn2C)C(=O)N2CCC3(CC2)C(=O)N(C)CN3c2ccccc2)cc1 [Example 139, (S)-2-Amino-N-[(R)-1-(4-methoxy-benzyl)-2-(3-methyl-4-oxo-1-phenyl-1,3,8-triaza-spiro[4.5]dec-8-yl)-2-oxo-ethyl]-3-(3-methyl-3H-imidazol-4-yl)-propionamide] | partial agonist | 6.75 | 45
CCN1CN(c2ccccc2)C2(CCN(C(=O)[C@@H](Cc3ccc(OC)cc3)NC(=O)[C@@H](N)Cc3cncn3C)CC2)C1=O [Example 140, (S)-2-Amino-N-[(R)-2-(3-ethyl-4-oxo-1-phenyl-1,3,8-triaza-spiro[4.5]dec-8-yl)-1-(4-methoxy-benzyl)-2-oxo-ethyl]-3-(3-methyl-3H-imidazol-4-yl)-propionamide] | partial agonist | 7.60 | 42
COc1ccc(C[C@@H](NC(=O)[C@@H](N)Cc2cncn2C)C(=O)N2CCC3(CC2)C(=O)N(C(C)C)CN3c2ccccc2)cc1 [Example 141, (S)-2-Amino-N-[(R)-2-(3-isopropyl-4-oxo-1-phenyl-1,3,8-triaza-spiro[4.5]dec-8-yl)-1-(4-methoxy-benzyl)-2-oxo-ethyl]-3-(3-methyl-3H-imidazol-4-yl)-propionamide] | partial agonist | 8.22 | 45
CCCCN1CN(c2ccccc2)C2(CCN(C(=O)[C@@H](Cc3ccc(OC)cc3)NC(=O)[C@@H](N)Cc3cncn3C)CC2)C1=O [Example 142, (S)-2-Amino-N-[(R)-2-(3-butyl-4-oxo-1-phenyl-1,3,8-triaza-spiro[4.5]dec-8-yl)-1-(4-methoxy-benzyl)-2-oxo-ethyl]-3-(3-methyl-3H-imidazol-4-yl)-propionamide] | partial agonist | 7.70 | 43
COc1ccc(C[C@@H](NC(=O)[C@@H](N)Cc2cncn2C)C(=O)N2CCC3(CC2)C(=O)N(Cc2ccccc2)CN3c2ccccc2)cc1 [Example 144, (S)-2-Amino-N-[(R)-2-(3-benzyl-4-oxo-1-phenyl-1,3,8-triaza-spiro[4.5]dec-8-yl)-1-(4-methoxy-benzyl)-2-oxo-ethyl]-3-(3-methyl-3H-imidazol-4-yl)-propionamide] | partial agonist | 7.77 | 46
COc1ccc(C[C@@H](NC(=O)CCc2cnc[nH]2)C(=O)N2CCC3(CC2)C(=O)N(CCO)CN3c2ccccc2)cc1 [Example 149, N-[(R)-2-[3-(2-Hydroxy-ethyl)-4-oxo-1-phenyl-1,3,8-triaza-spiro[4.5]dec-8-yl]-1-(4-methoxy-benzyl)-2-oxo-ethyl]-3-(3H-imidazol-4-yl)-propionamide] | partial agonist | 7.60 | 60
COc1ccc(C[C@@H](NC(=O)CCc2cnc[nH]2)C(=O)N2CCC3(CC2)C(=O)N(C(C)C)CN3c2ccccc2)cc1 [Example 150, 3-(3H-Imidazol-4-yl)-N-[(R)-2-(3-isopropyl-4-oxo-1-phenyl-1,3,8-triaza-spiro[4.5]dec-8-yl)-1(4-methoxy-benzyl)-2-oxo-ethyl]-propionamide] | partial agonist | 8.52 | 71
COc1ccc(C[C@@H](NC(=O)[C@@H](N)Cc2cncn2C)C(=O)N2CCC3(CC2)C(=O)N(C2CCCC2)CN3c2ccccc2)cc1 [Example 151, (S)-2-Amino-N-[(R)-2-(3-cyclopentyl-4-oxo-1-phenyl-1,3,8-triaza-spiro[4.5]dec-8-yl)-1-(4-methoxy-benzyl)-2-oxo-ethyl]-3-(3-methyl-3H-imidazol-4-yl)-propionamide] | partial agonist | 8.15 | 37
COc1ccc(C[C@@H](NC(=O)CCc2cnc[nH]2)C(=O)N2CCC3(CC2)C(=O)N(C2CCCC2)CN3c2ccccc2)cc1 [Example 152, N-[(R)-2-(3-Cyclopentyl-4-oxo-1-phenyl-1,3,8-triaza-spiro[4.5]dec-8-yl)-1-(4-methoxy-benzyl)-2-oxo-ethyl]-3-(3H-imidazol-4-yl)-propionamide] | partial agonist | 8.70 | 50
COc1ccc(C[C@@H](NC(=O)CCc2c[nH]cn2)C(=O)N2CCC3(CC2)C(=O)N(Cc2ccccc2)CN3c2ccccc2)cc1 [Example 153, N-[(R)-2-(3-Benzyl-4-oxo-1-phenyl-1,3,8-triaza-spiro[4.5]dec-8-yl)-1-(4-methoxy-benzyl)-2-oxo-ethyl]-3-(1H-imidazol-4-yl)-propionamide] | partial agonist | 7.92 | 54
COc1ccc(C[C@@H](NC(=O)CCc2c[nH]cn2)C(=O)N2CCC3(CC2)C(=O)N(Cc2ccccc2Cl)CN3c2ccccc2)cc1 [Example 154, N-[(R)-2-[3-(2-Chloro-benzyl)-4-oxo-1-phenyl-1,3,8-triaza-spiro[4.5]dec-8-yl]-1-(4-methoxy-benzyl)-2-oxo-ethyl]-3-(1H-imidazol-4-yl)-propionamide] | partial agonist | 7.59 | 50
COc1ccc(C[C@@H](NC(=O)CCc2c[nH]cn2)C(=O)N2CCC3(CC2)C(=O)N(Cc2cccc(Cl)c2)CN3c2ccccc2)cc1 [Example 155, N-[(R)-2-[3-(3-Chloro-benzyl)-4-oxo-1-phenyl-1,3,8-triaza-spiro[4.5]dec-8-yl]-1-(4-methoxy-benzyl)-2-oxo-ethyl]-3-(1H-imidazol-4-yl)-propionamide] | partial agonist | 7.85 | 42
COc1ccc(C[C@@H](NC(=O)CCc2c[nH]cn2)C(=O)N2CCC3(CC2)C(=O)N(Cc2ccc(Cl)cc2)CN3c2ccccc2)cc1 [Example 156, N-[(R)-2-[3-(4-Chloro-benzyl)-4-oxo-1-phenyl-1,3,8-triaza-spiro[4.5]dec-8-yl]-1-(4-methoxy-benzyl)-2-oxo-ethyl]-3-(1H-imidazol-4-yl)-propionamide] | partial agonist | 7.64 | 45
COc1ccc(C[C@@H](NC(=O)CCc2c[nH]cn2)C(=O)N2CCC3(CC2)C(=O)N(Cc2ccccn2)CN3c2ccccc2)cc1 [Example 157, 3-(1H-Imidazol-4-yl)-N-[(R)-1-(4-methoxy-benzyl)-2-oxo-2-(4-oxo-1-phenyl-3-pyridin-2-ylmethyl-1,3,8-triaza-spiro[4.5]dec-8-yl)-ethyl]-propionamide] | partial agonist | 7.39 | 38
COc1ccc(C[C@@H](NC(=O)CCc2c[nH]cn2)C(=O)N2CCC3(CC2)C(=O)N(Cc2cccnc2)CN3c2ccccc2)cc1 [Example 158, 3-(1H-Imidazol-4-yl)-N-[(R)-1-(4-methoxy-benzyl)-2-oxo-2-(4-oxo-1-phenyl-3-pyridin-3-ylmethyl-1,3,8-triaza-spiro[4.5]dec-8-yl)-ethyl]-propionamide] | partial agonist | 7.70 | 45
COc1ccc(C[C@@H](NC(=O)CCc2cnc[nH]2)C(=O)N2CCC3(CC2)C(=O)N(C2CCC2)CN3c2ccccc2)cc1 [Example 159, N-[(R)-2-(3-Cyclobutyl-4-oxo-1-phenyl-1,3,8-triaza-spiro[4.5]dec-8-yl)-1-(4-methoxy-benzyl)-2-oxo-ethyl]-3-(3H-imidazol-4-yl)-propionamide] | partial agonist | 8.22 | 49
COc1ccc(C[C@@H](NC(=O)C[C@H]2Cc3ccccc3CN2)C(=O)N2CCC3(CC2)C(=O)N(C(C)C)CN3c2ccccc2)cc1 [Example 164, N-[(R)-2-(3-Isopropyl-4-oxo-1-phenyl-1,3,8-triaza-spiro[4.5]dec-8-yl)-1-(4-methoxy-benzyl)-2-oxo-ethyl]-2-(R)-1,2,3,4-tetrahydro-isoquinolin-3-yl-acetamide] | partial agonist | 9.15 | 75
